The test system of one data set is Human alphaherpesvirus 1. In words: Antiviral activity against Human herpesvirus 1 infected African green monkey Vero cells after 66 hr by viral plaque reduction assay. Also on record: concentration or dose not given beside the values. It counts as functional. On the technique in general: Plaque reduction counts the foci of infection that form in a cell layer.
The subject of another data set is Vero. In words: Cytotoxicity against Chlorocebus aethiops (African green monkey) Vero cells after 24 hr. The data set is classed as cell-based. Particulars: chlorocebus sabaeus.

Active and inactive are the calls of the source. The rule behind the calls is not given here.

On to `Cc1nn(-c2ccccc2)c(-c2ccccc2)c1C1CC(c2ccc(N)cc2)=NO1` (centres undefined), for which the Activity in the data set with Human alphaherpesvirus 1 amounted to 10%.

The compound `Cc1ccc(C2=NOC(c3c(C)nn(-c4ccccc4)c3-c3ccccc3)C2)cc1` (centres undefined) displayed an Activity in the data set on Human alphaherpesvirus 1 of 53%.

In the data set on Human alphaherpesvirus 1, `Cc1ccc(C(=O)/C=C/c2c(C)nn(-c3ccccc3)c2-c2ccccc2)cc1` returned an Activity of 10%.

In the data set with Human alphaherpesvirus 1, `COc1ccc(OC)c(C(=O)/C=C/c2c(C)nn(-c3ccccc3)c2-c2ccccc2)c1` registered an Activity of 17%.

The compound `Cc1nn(-c2ccccc2)c(-c2ccccc2)c1C1CC(c2ccc(N)cc2)=NN1` (centres undefined) came in with an Activity in the data set with Human alphaherpesvirus 1 of 10%.

`Cc1nn(-c2ccccc2)c(-c2ccccc2)c1-c1cc(-c2ccc(Br)cc2)[nH]c(=O)c1C#N` had an Activity with Human alphaherpesvirus 1 of 52%.

In the data set with Human alphaherpesvirus 1, `CSc1cccc(Nc2nc(-c3ccc(C)cc3)cc(-c3c(C)nn(-c4ccccc4)c3-c3ccccc3)n2)c1` came in with an Activity of 52%.

Take `Cc1nn(-c2ccccc2)c(-c2ccccc2)c1-c1cc(-c2ccc(Br)cc2)nc2nc(/C=C/C(=O)O)[nH]c(=O)c12`: in the data set with Human alphaherpesvirus 1, the Activity is on record as 10%.

Turning to `Cc1nn(-c2ccccc2)c(-c2ccccc2)c1/C=C/C(=O)c1ccc(N)cc1`, in the data set on Human alphaherpesvirus 1, the outcome was inactive. Also, in the data set on Vero, the Activity result is “Toxic”.

`COc1ccc(OC)c(C2=NNC(c3c(C)nn(-c4ccccc4)c3-c3ccccc3)C2)c1` (centres undefined) displayed an Activity in the data set on Human alphaherpesvirus 1 of 22%.

On to `Nc1nc2c(ncn2COCCO)c(=O)[nH]1` [ACYCLOVIR], for which the Activity in the data set with Human alphaherpesvirus 1 is recorded as 100%.

Regarding `Cc1nn(-c2ccccc2)c(-c2ccccc2)c1C1CC(c2ccc(N)cc2)=NN1c1ccccc1` (centres undefined), in the data set on Human alphaherpesvirus 1, the result was inactive. Further, the Activity entry in the data set on Vero is reported as “Toxic”.

Turning to `Cc1nn(-c2ccccc2)c(-c2ccccc2)c1C1CC(c2cccc(N)c2)=NN1c1ccccc1` (centres undefined), in the data set with Human alphaherpesvirus 1, the Activity was 11%.

Take `COc1ccc(OC)c(C2=NN(c3ccccc3)C(c3c(C)nn(-c4ccccc4)c3-c3ccccc3)C2)c1` (centres undefined): the outcome in the data set on Human alphaherpesvirus 1 was inactive. The Activity result with Vero is reported as “Toxic”.

For `COc1ccc(C2=NOC(c3c(C)nn(-c4ccccc4)c3-c3ccccc3)C2)cc1` (centres undefined), the outcome with Human alphaherpesvirus 1 was inactive. The Activity result in the data set on Vero was “Toxic”.

Regarding `Cc1nn(-c2ccccc2)c(-c2ccccc2)c1-c1cc(-c2ccc(Br)cc2)nc(N2C(=O)c3ccccc3C2=O)c1C#N`, in the data set with Human alphaherpesvirus 1, the Activity is 22%.

Turning to `Cc1nn(-c2ccccc2)c(-c2ccccc2)c1C1CC(c2cccc(N)c2)=NO1` (centres undefined), the Activity in the data set with Human alphaherpesvirus 1 amounted to 22%.

For `Cc1nn(-c2ccccc2)c(-c2ccccc2)c1C1CC(c2ccc(Br)cc2)=NN1` (centres undefined), in the data set with Human alphaherpesvirus 1, the Activity is given as 18%.

For the compound `COc1ccc(C2=NNC(c3c(C)nn(-c4ccccc4)c3-c3ccccc3)C2)cc1` (centres undefined), the Activity with Human alphaherpesvirus 1 is 22%.

Regarding `Cc1ccc(C2=NN(c3ccccc3)C(c3c(C)nn(-c4ccccc4)c3-c3ccccc3)C2)cc1` (centres undefined), the result in the data set with Human alphaherpesvirus 1 was inactive. In addition, the Activity entry in the data set on Vero is listed as “Toxic”.

As to `Cc1nn(-c2ccccc2)c(-c2ccccc2)c1/C=C/C(=O)c1cccc(N)c1`, the Activity in the data set on Human alphaherpesvirus 1 amounted to 10%.

Consider `Cc1nn(-c2ccccc2)c(-c2ccccc2)c1C1CC(c2cccc(N)c2)=NN1` (centres undefined), for which the Activity with Human alphaherpesvirus 1 was 15%.

Consider `COc1ccc(O)c(C2=NOC(c3c(C)nn(-c4ccccc4)c3-c3ccccc3)C2)c1` (centres undefined), for which the outcome with Human alphaherpesvirus 1 was inactive. Besides, the Activity entry in the data set with Vero is given as “Toxic”.

`Cc1nn(-c2ccccc2)c(-c2ccccc2)c1/C=C/C(=O)c1ccc(Br)cc1` had an Activity with Human alphaherpesvirus 1 of 22%.

As to `COc1ccc(C(=O)/C=C/c2c(C)nn(-c3ccccc3)c2-c2ccccc2)cc1`, the outcome in the data set on Human alphaherpesvirus 1 was inactive. The Activity entry in the data set on Vero is “Toxic”.

Consider `Cc1nn(-c2ccccc2)c(-c2ccccc2)c1-c1cc(-c2ccc(Br)cc2)nc(N)c1C#N`, for which, in the data set on Human alphaherpesvirus 1, the Activity came to 51%.

In the case of `Cc1nn(-c2ccccc2)c(-c2ccccc2)c1C1CC(c2ccc(Br)cc2)=NN1c1ccccc1` (centres undefined), the outcome in the data set with Human alphaherpesvirus 1 was inactive. The Activity entry in the data set with Vero was “Toxic”.

With `Cc1ccc(C2=NNC(c3c(C)nn(-c4ccccc4)c3-c3ccccc3)C2)cc1` (centres undefined), in the data set on Human alphaherpesvirus 1, the Activity amounted to 22%.

In turn, `Cc1nn(-c2ccccc2)c(-c2ccccc2)c1C1CC(c2ccc(Br)cc2)=NO1` (centres undefined) gave an Activity with Human alphaherpesvirus 1 of 10%.

With `COc1ccc(C2=NN(c3ccccc3)C(c3c(C)nn(-c4ccccc4)c3-c3ccccc3)C2)cc1` (centres undefined), the result with Human alphaherpesvirus 1 was inactive. Moreover, in the data set on Vero, the Activity result was “Toxic”.

Values taken from ChEMBL document CHEMBL3045049, “Synthesis and antiviral activity of new 3-methyl-1,5-diphenyl-1H-pyrazole derivatives” (Med Chem Res, 2012).
